{
  "source": "patent US12171230B2",
  "about": "“Herbicidal compositions” (Bayer Aktiengesellschaft, priority 2018, dated 2024)",
  "type_in_all_cases": "in vivo",
  "key": {"[1]": {"system": "Digitaria sanguinalis", "assay": "Post-emergence herbicidal action against Digitaria sanguinalis", "settings": "12 g of a.i./ha, post-emergence", "protocol": "(§1) When the observed efficacies exceed the formal sum total of the values of the tests with individual applications, they also exceed the expected value according to Colby, which is calculated using the formula below and is likewise regarded as an indication of synergism (cf. S. R. Colby; in Weeds 15 (1967) p. 20 to 22): E^C=A+B−([…])\n(§2) Here: • A=efficacy of the active compound (A) in % at an application rate of a g a.i./ha; • B=efficacy of the active compound (B) in % at an application rate of b g a.i./ha; • E^C=expected value of the effect of the combination (A)+(B) in % at the combined application rate a+b g a.i./ha.\n(§3) Seeds or rhizome pieces of mono- and dicotyledonous weeds are placed in sandy loam in pots, covered with soil and grown in a greenhouse under good growth conditions (temperature, air humidity, water supply). Three weeks after sowing, the test plants were treated at the three-leaf stage with the compositions according to the invention. The compositions according to the invention formulated as spray powders or as emulsion concentrates were sprayed onto the green plant parts in various dosages with an application rate of 300 to 800 l/ha of water (equivalent). After the test plants have been left to stand in the greenhouse under optimal growth conditions for about 3 to 4 weeks, the action of the preparations is scored visually in comparison to untreated controls. The compositions according to the invention also have good post-emergence herbicidal activity against a broad spectrum of economically important gramineous and broadleaf weeds."}, "[2]": {"system": "Brachiaria platyphylla", "assay": "Post-emergence herbicidal action against Brachiaria platyphylla", "settings": "4 g of a.i./ha, post-emergence, block with (B9.10) Saflufenacil", "protocol": "as §1, §2, §3"}, "[3]": {"system": "Pharbitis purpurea", "assay": "Post-emergence herbicidal action against Pharbitis purpurea", "settings": "post-emergence", "protocol": "as §1, §2, §3"}, "[4]": {"system": "Amaranthus palmeri", "assay": "Post-emergence herbicidal action against Amaranthus palmeri", "settings": "Amaranthus palmeri, post-emergence, 504 h, post-emergence, read-out: Herbicidal action 21 DAT [%] against Amaranthus palmeri", "protocol": "as §1, §2, §3"}, "[5]": {"system": "Alopecurus myosuroides", "assay": "Post-emergence herbicidal action against Alopecurus myosuroides", "source_text": "(§4) The following abbreviations are used in the description and the tables that follow: • g of a.i./ha=grams of active substance (active ingredient) (=100% active compound) per hectare; • The sum total of the effects of the individual applications is reported under E^A; • expected values according to Colby are each reported under E^C.\n(§5) The rating period is reported in days after application (DAT)."}, "[6]": {"system": "Lolium rigidum (resistant biotype)", "assay": "Post-emergence herbicidal action against Lolium rigidum (resistant biotype)", "source_text": "as §4, §5"}, "[7]": {"system": "Lamium purpureum", "assay": "Post-emergence herbicidal action against Lamium purpureum", "settings": "100 g of a.i./ha", "protocol": "as §1, §2, §3"}, "[8]": {"system": "Lolium rigidum", "assay": "Post-emergence herbicidal action against Lolium rigidum", "source_text": "as §4, §5"}, "[9]": {"system": "Matricaria inodora", "assay": "Post-emergence herbicidal action against Matricaria inodora", "settings": "33 g of a.i./ha"}, "[10]": {"system": "Poa annua", "assay": "Post-emergence herbicidal action against Poa annua", "protocol": "as §1, §2, §3"}, "[11]": {"system": "Veronica hederifolia", "assay": "Post-emergence herbicidal action against Veronica hederifolia", "source_text": "as §4, §5"}, "[12]": {"system": "Galium aparine", "assay": "Post-emergence herbicidal action against Galium aparine", "protocol": "as §1, §2, §3"}, "[13]": {"system": "Phalaris minor", "assay": "Post-emergence herbicidal action against Phalaris minor", "source_text": "as §4, §5"}, "[14]": {"system": "Viola tricolor", "assay": "Post-emergence herbicidal action against Viola tricolor", "source_text": "as §4, §5"}, "[15]": {"system": "Bromus sterilis", "assay": "Post-emergence herbicidal action against Bromus sterilis", "source_text": "as §4, §5"}, "[16]": {"system": "Centaurea cyano", "assay": "Post-emergence herbicidal action against Centaurea cyano", "protocol": "Seeds or rhizome pieces of mono- and dicotyledonous weeds are placed in sandy loam in pots, covered with soil and grown in a greenhouse under good growth conditions (temperature, air humidity, water supply). Three weeks after sowing, the test plants were treated at the three-leaf stage with the compositions according to the invention. The compositions according to the invention formulated as spray powders or as emulsion concentrates were sprayed onto the green plant parts in various dosages with an application rate of 300 to 800 l/ha of water (equivalent)."}, "[17]": {"system": "Bidens pilosa", "assay": "Post-emergence herbicidal action against Bidens pilosa", "settings": "post-emergence, 21 DAT", "protocol": "as §1, §2, §3"}, "[18]": {"system": "Abutilon theophrasti", "assay": "Post-emergence herbicidal action against Abutilon theophrasti", "source_text": "as §4, §5"}},
  "data": [
    {"compound": "CC(C)N(C)S(=O)(=O)NC(=O)c1cc(-n2c(=O)cc(C(F)(F)F)n(C)c2=O)c(F)cc1Cl", "note": "[(B9.10) Saflufenacil, saflufenacil, reference compound]", "values": [
      {"measurement": "Herbicidal action 21 DAT [%] against Digitaria sanguinalis", "setting": "[1]", "value": 50, "unit": "%"},
      {"measurement": "Herbicidal action 21 DAT [%] against Brachiaria platyphylla", "setting": "[2]", "value": 25, "unit": "%"},
      {"measurement": "Herbicidal action 21 DAT [%] against Pharbitis purpurea", "setting": "[3]; 1.3 g of a.i./ha", "value": 30, "unit": "%"},
      {"measurement": "pest or weed control at 1.3 g/ha", "setting": "[4]; 1.3 g of a.i./ha, block with (B9.10) Saflufenacil", "value": 70, "unit": "%"}
    ]},
    {"compound": "CC(C)N(C(=O)COc1nnc(C(F)(F)F)s1)c1ccc(F)cc1", "note": "[(B2.28) Flufenacet]", "values": [
      {"measurement": "Herbicidal action 14 DAT against Alopecurus myosuroides", "setting": "[5]; 100 g of a.i./ha", "value": 70, "unit": "%"},
      {"measurement": "Herbicidal action 28 DAT against Alopecurus myosuroides", "setting": "[5]; 300 g of a.i./ha", "value": 75, "unit": "%"},
      {"measurement": "Herbicidal action 14 DAT against Lolium rigidum (resistant biotype)", "setting": "[6]; 100 g of a.i./ha", "value": 20, "unit": "%"},
      {"measurement": "Herbicidal action 28 DAT against Lolium rigidum (resistant biotype)", "setting": "[6]; 100 g of a.i./ha", "value": 10, "unit": "%"},
      {"measurement": "Herbicidal action 14 DAT against Lolium rigidum (resistant biotype)", "setting": "[6]; 300 g of a.i./ha", "value": 10, "unit": "%"},
      {"measurement": "Herbicidal action 28 DAT against Lolium rigidum (resistant biotype)", "setting": "[6]; 300 g of a.i./ha", "value": 20, "unit": "%"},
      {"measurement": "Herbicidal action 14 DAT against Lamium purpureum L.", "setting": "[7]", "value": 40, "unit": "%"},
      {"measurement": "Herbicidal action 28 DAT against Lamium purpureum L.", "setting": "[7]", "value": 20, "unit": "%"},
      {"measurement": "Herbicidal action 14 DAT against Lolium rigidum", "setting": "[8]; 33 g of a.i./ha", "value": 0, "unit": "%"},
      {"measurement": "Herbicidal action 14 DAT against Lolium rigidum", "setting": "[8]; 100 g of a.i./ha", "value": 35, "unit": "%"},
      {"measurement": "Herbicidal action 28 DAT against Lolium rigidum", "setting": "[8]; 100 g of a.i./ha", "value": 20, "unit": "%"},
      {"measurement": "Herbicidal action 14 DAT against Lolium rigidum", "setting": "[8]; 300 g of a.i./ha", "value": 40, "unit": "%"},
      {"measurement": "Herbicidal action 28 DAT against Lolium rigidum", "setting": "[8]; 300 g of a.i./ha", "value": 25, "unit": "%"},
      {"measurement": "Herbicidal action 14 DAT against Matricaria inodora", "setting": "[9]", "value": 0, "unit": "%"},
      {"measurement": "Herbicidal action 28 DAT against Poa annua L.", "setting": "[10]; 33 g of a.i./ha", "value": 10, "unit": "%"},
      {"measurement": "Herbicidal action 28 DAT against Poa annua L.", "setting": "[10]; 100 g of a.i./ha", "value": 70, "unit": "%"},
      {"measurement": "Herbicidal action 28 DAT against Poa annua L.", "setting": "[10]; 300 g of a.i./ha", "value": 65, "unit": "%"},
      {"measurement": "Herbicidal action 14 DAT against Veronica hederifolia", "setting": "[11]; 33 g of a.i./ha", "value": 35, "unit": "%"},
      {"measurement": "Herbicidal action 14 DAT against Veronica hederifolia", "setting": "[11]; 100 g of a.i./ha", "value": 40, "unit": "%"},
      {"measurement": "Herbicidal action 28 DAT against Galium aparine", "setting": "[12]; 33 g of a.i./ha", "value": 60, "unit": "%"},
      {"measurement": "Herbicidal action 28 DAT against Galium aparine", "setting": "[12]; 100 g of a.i./ha", "value": 65, "unit": "%"},
      {"measurement": "Herbicidal action 28 DAT against Phalaris minor", "setting": "[13]; 33 g of a.i./ha", "value": 0, "unit": "%"},
      {"measurement": "Herbicidal action 28 DAT against Phalaris minor", "setting": "[13]; 100 g of a.i./ha", "value": 40, "unit": "%"},
      {"measurement": "Herbicidal action 28 DAT against Phalaris minor", "setting": "[13]; 300 g of a.i./ha", "value": 85, "unit": "%"},
      {"measurement": "Herbicidal action 14 DAT against Viola tricolor", "setting": "[14]; 33 g of a.i./ha", "value": 20, "unit": "%"},
      {"measurement": "Herbicidal action 28 DAT against Viola tricolor", "setting": "[14]; 33 g of a.i./ha", "value": 20, "unit": "%"},
      {"measurement": "Herbicidal action 14 DAT against Viola tricolor", "setting": "[14]; 100 g of a.i./ha", "value": 50, "unit": "%"},
      {"measurement": "Herbicidal action 28 DAT against Viola tricolor", "setting": "[14]; 100 g of a.i./ha", "value": 20, "unit": "%"},
      {"measurement": "Herbicidal action 28 DAT against Viola tricolor", "setting": "[14]; 300 g of a.i./ha", "value": 35, "unit": "%"},
      {"measurement": "Herbicidal action 14 DAT against Bromus sterilis", "setting": "[15]; 33 g of a.i./ha", "value": 35, "unit": "%"},
      {"measurement": "Herbicidal action 14 DAT against Bromus sterilis", "setting": "[15]; 100 g of a.i./ha", "value": 75, "unit": "%"},
      {"measurement": "Herbicidal action 28 DAT against Bromus sterilis", "setting": "[15]; 100 g of a.i./ha", "value": 25, "unit": "%"},
      {"measurement": "Herbicidal action 28 DAT against Bromus sterilis", "setting": "[15]; 300 g of a.i./ha", "value": 65, "unit": "%"},
      {"measurement": "Herbicidal action 28 DAT against Centaurea cyanus", "setting": "[16]; 100 g of a.i./ha", "value": 20, "unit": "%"},
      {"measurement": "Herbicidal action 14 DAT against Centaurea cyanus", "setting": "[16]; 300 g of a.i./ha", "value": 30, "unit": "%"}
    ]},
    {"compound": "C[n+]1ccc(-c2cc[n+](C)cc2)cc1", "note": "[(B5.37) Paraquat]", "values": [
      {"measurement": "Herbicidal action 21 DAT [%] against Bidens pilosa", "setting": "[17]; 5 g of a.i./ha", "value": 0, "unit": "%"},
      {"measurement": "Herbicidal action 21 DAT [%] against Bidens pilosa", "setting": "[17]; 45 g of a.i./ha", "value": 10, "unit": "%"},
      {"measurement": "Herbicidal action 21 DAT [%] against Pharbitis purpurea", "setting": "[3]; 21 DAT, 5 g of a.i./ha", "value": 15, "unit": "%"},
      {"measurement": "pest or weed control at 5 g/ha", "setting": "[4]", "value": 0, "unit": "%"},
      {"measurement": "pest or weed control at 45 g/ha", "setting": "[4]", "value": 10, "unit": "%"},
      {"measurement": "Herbicidal action 21 DAT [%] against Abutilon theophrasti", "setting": "[18]; 5 g of a.i./ha", "value": 0, "unit": "%"},
      {"measurement": "Herbicidal action 21 DAT [%] against Abutilon theophrasti", "setting": "[18]; 45 g of a.i./ha", "value": 10, "unit": "%"}
    ]}
  ]
}
